Format in all cases: cell-based
The subject of assay [1] is NRF2 protein. In words: Western blot analysis of NRF2 protein abundance and downstream targets in cell lines. To be noted: H1299, 10 ng/ml FA, 24 hr.
For assay [2], the system named is NRF2 activity in H1299-NQO1-YFP cells. In words: NRF2 activity reporter IC50 in H1299-NQO1-YFP cells vs NRF2 pathway activators (IncuCyte, YFP/mCherry). To be noted: for suppression of NRF2 activity (in words): IC50 experiments at the doses tested. As to the method:
Readings were taken every 2 hours for at least 24 hours. […] Readings were also taken every 2 hours for 96 hours in and IncuCyte S3.
(§1) YFP total intensity (correlating to NRF2 activity) was normalized to NLS-mCherry (cell number) total intensity to give a ratio (YFP/mCherry). Ratios at one time point at least 24 hours post compounds were added were used. These numbers were then plotted in Graphpad Prism to calculate IC50s. […] From three biological replicates, percent confluence was used for proliferation assays to calculate IC50s, calculations performed using Graphpad Prism.

In assay [3] the test system is NRF2 protein. The assay is described as follows: Western blot analysis of NRF2 protein abundance and downstream targets in cell lines. To be noted: western blot; 24-48 hours; PYR 10 μM, analogs 1 μM (104 in HEK293T 10 μM), MTX and PEM 0.1 μM, CG 10 μM. Here is the method:
(§2) Western Blots: KYSE70, HEK293T cells were plated and 24 hours later treated with compounds (see figure legends for details). Either at 24 or 48 hours later, cells were scrapped in RIPA buffer (0.2% deoxycholate, 0.1% SDS, 1% NP40, 150 mM NaCl, 50 mM Tris pH 7.4, 2 mM EDTA) supplemented with protease and phosphatase inhibitors, cleared at 14000×g for 15 minutes at 4° C., and supernatants were quantified by BCA assay (Pierce, 23225). Protein samples (20 μg) were prepared with 1×LDS buffer with 100 mM DTT, ran on NuPAGE 4-12% Bis-tris gels, and transferred onto a […] nitrocellulose membrane (Thermo, 88018). All blots were blocked in 5% milk in TBST for 30 minutes. After incubation of the primary antibody overnight at 4° C. and washed three times with 1×TBST, blots were incubated with LI-COR secondary antibodies for 1-2 hours, washed in 1×TBST thrice, and then imaged via a LI-COR Odyssey instrument (Li-COR, Lincoln, Nebr.).

Assay [4] deals with NRF2 mRNA and NRF2 target gene mRNA. The assay is described as follows: RT-qPCR of NRF2 mRNA and NRF2 downstream targets in KYSE70 cells. To be noted: 24 or 48 hours, PYR 10 μM, analogs 1 μM, MTX and PEM 0.1 μM. Here is the method: (§3) qRT-PCR: Total RNA was extracted using PureLink RNA kit following the manufacturers protocol. Primers for qPCR were designed using the National Center for Biotechnology Information's (NCBI) Primer-BLAST platform. For primer sequences, see Table 2. RNA was quantified using a Nanodrop One (Thermo, Waltham, Mass.), and the reverse transcription reaction was performed using 2 μg of RNA with the iSCRIPT Clear kit with DNAse (Biorad, 170-8891). For the qRT-PCR, PowerUP SYBR Green (Thermo, A25741) was used, and data were analyzed on an AB QuantStudio 6 Flex Real Time PCR machine (Applied Biosystems, Foster City, Calif.). ΔCT values were normalized to housekeeping gene RPL13a and then normalized to DMSO for final ΔΔCT value.
On the technique in general: Real-time PCR tracks product formation cycle by cycle.

In a further assay the test system is KYSE70 cells. The assay is described as follows: Proliferation IC50 (percent confluence, IncuCyte) in KYSE70 cells. To be noted: Homo sapiens, KYSE-70, 96 h, read-out: proliferation IC50. Here is the method: as §1, with “IncuCyte and IC50 calculations: […] […] Readings were taken every 2 hours for at least 24 hours. […] Readings were also taken every 2 hours for 96 hours in and IncuCyte S3. YFP total” for “YFP total”

A further assay deals with AXIN2 and CK1γ1 mRNA. In words: qRT-PCR of AXIN2 and CK1γ1 mRNA (not NRF2 target genes) in KYSE70 cells. To be noted: KYSE70, 48 hours; 1 μM 115, 0.1 μM MTX, 0.1 μM PEM.
Description: Single experiment shown. AXIN2 and CK1γ1 were done in same experiment, but separated for discussion. Error bars are SD and * represents p-value <0.05.
as §3

In the next assay the target is T1, DHFR protein (Homo sapiens, UniProt P00374).
T1 construct: endogenous in cells; host or cells: KYSE70, HEK293T, H1299, A549, OE21, PC-9
T1 sequence (P00374 1-187): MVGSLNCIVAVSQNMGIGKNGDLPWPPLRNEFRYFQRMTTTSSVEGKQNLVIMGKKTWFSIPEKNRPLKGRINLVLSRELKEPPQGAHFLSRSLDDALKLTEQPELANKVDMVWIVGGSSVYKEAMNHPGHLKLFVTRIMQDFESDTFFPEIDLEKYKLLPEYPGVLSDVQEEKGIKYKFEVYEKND
The assay is described as follows: Western blot for DHFR protein stabilization. To be noted: western blot at the doses used. Here is the method:
as §2

Where [5] appears, read: Table 3, activator CDDO 100 nM, H1299-NQO1-YFP cells, read-out: CDDO 100 nM IC50 μM ± SEM.
Where [6] appears, read: Table 3, activator SULF 2 μM, H1299-NQO1-YFP cells, read-out: SULF 2 μM IC50 μM ± SEM.
[7] abbreviates: Table 3, average over activators, H1299-NQO1-YFP cells, read-out: Avg IC50.
[8] abbreviates: read-out: PRL295 5 μM IC50 μM ± SEM, Table 3, activator PRL295 5 μM, H1299-NQO1-YFP cells.

Structures are written as SMILES. Like-named read-outs stand apart in the source and are kept apart here.

Take `Nc1nc(=O)c2c([nH]1)NCC(CNc1ccc(C(=O)N[C@@H](CCC(=O)O)C(=O)O)cc1)N2C=O` (mixture of isomers) [FA, Folinic Acid]: the “stabilization of NRF2 by FA alone” value with NRF2 protein [1] is given as “no stabilization of NRF2”.
As for `CC1(C)N=C(N)N=C(N)N1c1ccc(Cl)cc1` [CG, reference compound], the IC50 turned out to be 1.82 ± 0.085 µM in assay [2] (setting [5]), 1.5 ± 0.0466 µM in assay [2] (setting [6]), 1.7 µM in assay [2] (setting [7]) and 1.57 ± 0.008 µM in assay [2] (setting [8]). Besides, the NRF2 protein abundance entry in the assay on NRF2 protein [3] is “decreased”. Further, the “NRF2 mRNA and NRF2 target gene mRNA” value in assay [4] is “decreased”.
Turning to `CN(Cc1cnc2nc(N)nc(N)c2n1)c1ccc(C(=O)N[C@@H](CCC(=O)O)C(=O)O)cc1` [MTX, Methotrexate, reference compound], the IC50 came to 0.0008 µM in assay [2] (setting [5]); 0.0358 ± 0.0031 µM in assay [2] (setting [6]); 0.0202 µM in assay [2] (setting [7]); 0.024 ± 0.0024 µM in assay [2] (setting [8]); 12.4 nM with KYSE70 cells. Also, the NRF2 protein abundance result with NRF2 protein [3] is listed as “decreased”. For the same molecule, the “NRF2 mRNA and NRF2 target gene mRNA” value in assay [4] is “decreased”. Besides, the “AXIN2 and CK1γ1 mRNA” value in the assay with AXIN2 and CK1γ1 mRNA is “decreased AXIN2 and CK1γ1 mRNA”.
Consider `Nc1nc2[nH]cc(CCc3ccc(C(=O)N[C@@H](CCC(=O)O)C(=O)O)cc3)c2c(=O)[nH]1` [PEM, reference compound], for which, in assay [2], the “suppression of NRF2 activity (in words)” value is reported as “only partial suppression of NRF2 activity”. For the same molecule, the IC50 came out at 0.334 ± 0.03 µM in assay [2] (setting [5]), 0.382 ± 0.0374 µM in assay [2] (setting [6]), 0.276 µM in assay [2] (setting [7]) and 0.112 ± 0.0068 µM in assay [2] (setting [8]). In addition, the NRF2 protein abundance result in the assay on NRF2 protein [3] is reported as “did not”. In addition, in assay [4], the “NRF2 mRNA and NRF2 target gene mRNA” value is reported as “did not”. Besides, the “AXIN2 and CK1γ1 mRNA” value in the assay with AXIN2 and CK1γ1 mRNA was “decreased AXIN2 and CK1γ1 mRNA”.
Take `CCc1nc(N)ncc1-c1ccc(Cl)cc1` [WCDD101, 5-(4-chlorophenyl)-4-ethylpyrimidin-2-amine]: the “suppression of NRF2 activity (in words)” value in assay [2] was “did not have any effect on NRF2 activity”. Moreover, the IC50 in assay [2] (Table 1 and text, average over activators CDDO, PRL295, SULF, H1299-NQO1-YFP cells, read-out: Avg IC50) was over 20 µM; in assay [2] (Table 6 NRF2 inhibitors, read-out: Avg IC50), over 20 µM. Besides, the DHFR protein stabilization entry at DHFR protein is recorded as “DHFR was not stabilized”.

The values are drawn from patent US20220289686A1, “COMPOSITIONS OF NRF2 INHIBITING AGENTS AND METHODS OF USE THEREOF” (Washington University, priority 2021, published 2022).
